What is called GI50 is the concentration that inhibits growth by half.

Each structure is given as a SMILES string. Where a name gives a salt, the structure may show the parent alone.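 Grown in 96-well plates, cells were treated for 48 hours with each compound at five concentrations. Insufficient inhibition: endpoint recorded as highest concentration tested. GI50 marks 50% less growth.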 Calls of active or inactive are those of the source. Cut-off read from the data, not from the text of the source: active = GI50 up to about 1.1 µM and inactive = higher.

Test systems include OVCAR-4; UACC-62; RPMI-8226; NCI-H522; MCF7; 786-0; K562; RXF 393; KM12; LOX IMVI; HOP-62; SF-295; HCT-15; SR; CAKI-1; SK-MEL-5; HCT-116; SNB-75; SK-OV-3; IGROV-1.
What all share (test): DTP human tumour cell line panel, 48 h

Consider `Cc1cc(C)c(/C=C2\C(=O)Nc3ccccc32)[nH]1` [SEMAXANIB], for which the GI50 in the assay with OVCAR-4 is 52.5 µM (inactive); with UACC-62 it was > 100 µM (inactive); in the assay with RPMI-8226, > 100 µM (inactive); in the assay on NCI-H522, > 49.9 µM (inactive); in the assay with MCF7 it was 83.9 µM (inactive); with 786-0 it was > 100 µM (inactive). For the same compound, the GI50 was > 100 µM (inactive) in the assay with K562; > 100 µM (inactive) with RXF 393; 0.998 µM (active) in the assay with KM12; > 100 µM (inactive) with LOX IMVI; > 82.2 µM (inactive) in the assay on HOP-62; > 100 µM (inactive) with SF-295. In addition, the GI50 is 34.8 µM in the assay with HCT-15; 17.9 µM (inactive) in the assay with SR; > 59.2 µM (inactive) in the assay with CAKI-1; > 90.8 µM (inactive) in the assay with SK-MEL-5; 72.9 µM (inactive) with HCT-116; 0.906 µM (active) with SNB-75. The GI50 in the assay on SK-OV-3 was > 66.7 µM (inactive).
Regarding `CCCCOC(=O)CC(CC(=O)OCCCC)(OC(C)=O)C(=O)OCCCC` [ACETYLTRIBUTYL CITRATE], the GI50 is > 81.5 µM (inactive) in the assay on OVCAR-4; 117 µM (inactive) with UACC-62; 16 µM (inactive) in the assay with RPMI-8226; 47.5 µM (inactive) with NCI-H522; 39.1 µM (inactive) in the assay on MCF7; > 200 µM (inactive) in the assay with 786-0. Also, the GI50 in the assay on K562 was 29.6 µM (inactive); in the assay on RXF 393 it was 1.1 µM (active); with KM12, > 112 µM (inactive); with LOX IMVI, 150 µM (inactive); in the assay on IGROV-1, > 200 µM (inactive); in the assay with HOP-62, > 200 µM (inactive). Also, the GI50 in the assay with SF-295 is 91.2 µM (inactive); in the assay on HCT-15, above 177 µM; in the assay on SR, 14.7 µM (inactive); with CAKI-1, > 200 µM (inactive); in the assay on SK-MEL-5 it was 16.1 µM (inactive); with HCT-116, 56.4 µM (inactive). In addition, the GI50 is 8.49 µM (inactive) in the assay on SNB-75 and > 200 µM (inactive) in the assay on SK-OV-3.
For `CCOC(=O)/C(SC#N)=C(/N)N1CCCC1`, the GI50 in the assay on OVCAR-4, in the assay on UACC-62, with RPMI-8226, in the assay on NCI-H522, in the assay on MCF7 and in the assay on 786-0 was > 100 µM (inactive) throughout. Also, the GI50 with K562, with RXF 393, in the assay on KM12, with LOX IMVI, in the assay with IGROV-1 and in the assay on HOP-62 was > 100 µM (inactive) each time. The GI50 is > 100 µM (inactive) in the assay with SF-295; above 100 µM in the assay on HCT-15; > 100 µM (inactive) with SR; > 100 µM (inactive) in the assay with CAKI-1; > 100 µM (inactive) in the assay with SK-MEL-5; > 100 µM (inactive) in the assay on HCT-116. The values for the GI50 with SNB-75 and with SK-OV-3 were > 94.8 µM (inactive) and > 100 µM (inactive), respectively.
With `Cc1ccc2c(O)cc(-c3sccc3C)nc2n1`, the GI50 in the assay with OVCAR-4 is 9.79 µM (inactive); in the assay on UACC-62, 0.9 µM (active); in the assay on RPMI-8226 it was 0.444 µM (active); in the assay with NCI-H522, 0.296 µM (active); in the assay with MCF7, 0.315 µM (active); in the assay with 786-0 it was 0.711 µM (active). Moreover, the GI50 in the assay with K562 is 0.427 µM (active); with RXF 393 it was 1.31 µM (inactive); in the assay with KM12, 0.719 µM (active); in the assay on LOX IMVI, 0.723 µM (active); in the assay on IGROV-1, 0.625 µM (active); with HOP-62, 2.1 µM (inactive). Further, the GI50 with SF-295 was 0.497 µM (active); in the assay with HCT-15 it was 0.406 µM; in the assay on SR, 0.122 µM (active); in the assay with CAKI-1 it was 0.792 µM (active); in the assay on SK-MEL-5, 0.266 µM (active); in the assay on HCT-116, 0.452 µM (active). The GI50 was 0.726 µM (active) with SNB-75 and 1.45 µM (inactive) with SK-OV-3.
Consider `CC(NNC(=O)c1cc[n+]([BH2-]C#N)cc1)c1ccc(Cl)cc1Cl` (stereo unspecified), for which the GI50 is 30.7 µM (inactive) in the assay on OVCAR-4; 55.8 µM (inactive) with UACC-62; 17.6 µM (inactive) in the assay with RPMI-8226; 28.6 µM (inactive) in the assay with NCI-H522; 36 µM (inactive) with MCF7; 49.1 µM (inactive) with 786-0. Moreover, the GI50 in the assay with K562 was 24.2 µM (inactive); in the assay on RXF 393 it was 43.3 µM (inactive); in the assay with KM12, 34.8 µM (inactive); in the assay on LOX IMVI, 29.2 µM (inactive); in the assay with IGROV-1, 51.8 µM (inactive); in the assay with SF-295, 32.5 µM (inactive). Moreover, the GI50 was 44.8 µM in the assay with HCT-15; 30.9 µM (inactive) in the assay with SR; 68.2 µM (inactive) in the assay with CAKI-1; 23 µM (inactive) in the assay with SK-MEL-5; 22.5 µM (inactive) with HCT-116; 31.8 µM (inactive) with SNB-75.
For `CCOC(=O)c1sc2nc(SC)nc3c2c1NC(=O)CN3c1cccc(F)c1`, the GI50 in the assay on OVCAR-4 was 17.9 µM (inactive); in the assay with UACC-62, 30.5 µM (inactive); in the assay with RPMI-8226 it was 9.12 µM (inactive); with NCI-H522 it was 26.5 µM (inactive); in the assay on MCF7, 29 µM (inactive); in the assay with K562 it was 22.4 µM (inactive). Moreover, the GI50 is 16.7 µM (inactive) in the assay with RXF 393; 80.5 µM (inactive) with KM12; 17.8 µM (inactive) in the assay on LOX IMVI; 61.8 µM (inactive) in the assay with IGROV-1; 14.5 µM (inactive) in the assay with HOP-62; 16.3 µM (inactive) with SF-295. The GI50 in the assay with SR was 70 µM (inactive); in the assay on CAKI-1 it was 44.3 µM (inactive); in the assay on SK-MEL-5, 0.855 µM (active); in the assay with HCT-116 it was 18.2 µM (inactive); in the assay with SK-OV-3, 20 µM (inactive).
Regarding `CCOC(=O)CNC(=O)C(CSCc1ccc(Br)cc1)NC(=O)CCC(N)C(=O)OCC` (stereo unspecified), the GI50 in the assay on OVCAR-4, in the assay on UACC-62, in the assay with RPMI-8226, with NCI-H522, in the assay with MCF7 and in the assay on 786-0 was > 50 µM (inactive) in each case. Further, the GI50 was > 50 µM (inactive) in the assay on K562; > 50 µM (inactive) in the assay with RXF 393; 40.6 µM (inactive) in the assay on KM12; > 50 µM (inactive) in the assay on IGROV-1; > 50 µM (inactive) in the assay with HOP-62; > 50 µM (inactive) in the assay on SF-295. For the same compound, the GI50 is above 50 µM with HCT-15; > 50 µM (inactive) in the assay with SR; > 50 µM (inactive) in the assay on CAKI-1; > 50 µM (inactive) in the assay with SK-MEL-5; > 50 µM (inactive) with HCT-116; > 50 µM (inactive) in the assay with SNB-75. Also, the GI50 in the assay on SK-OV-3 is > 50 µM (inactive).
In the case of `C[C@]12CC[C@H](O)CC1=CC[C@@H]1[C@@H]2CC[C@]2(C)C(=O)CC[C@@H]12` [PRASTERONE], the GI50 with OVCAR-4, in the assay with UACC-62, in the assay on RPMI-8226, with NCI-H522, in the assay on MCF7 and in the assay with 786-0 was > 100 µM (inactive) throughout. Moreover, the GI50 is > 100 µM (inactive) with RXF 393; > 100 µM (inactive) in the assay with KM12; > 100 µM (inactive) in the assay on LOX IMVI; > 100 µM (inactive) in the assay on SF-295; above 100 µM with HCT-15; > 100 µM (inactive) in the assay on SR. Also, the GI50 with CAKI-1, in the assay on SK-MEL-5, in the assay on HCT-116, with SNB-75 and in the assay on SK-OV-3 was > 100 µM (inactive) throughout.
Take `O=C(Cc1ccccc1)Nc1nc2ccc(Cl)cc2c2nc(-c3ccco3)nn12`: the GI50 with UACC-62 is > 100 µM (inactive); with RPMI-8226, > 100 µM (inactive); in the assay with NCI-H522, > 100 µM (inactive); in the assay with MCF7 it was 4.46 µM (inactive); in the assay on 786-0, 10.1 µM (inactive); with K562, > 100 µM (inactive). Moreover, the GI50 with RXF 393 was 17.7 µM (inactive); with KM12 it was > 100 µM (inactive); in the assay on LOX IMVI, > 100 µM (inactive); in the assay on IGROV-1, > 21.6 µM (inactive); in the assay on HOP-62, 16.4 µM (inactive); in the assay on SF-295, 21.7 µM (inactive). The GI50 is above 100 µM with HCT-15; 3.44 µM (inactive) in the assay with SR; > 100 µM (inactive) in the assay on CAKI-1; 89.5 µM (inactive) in the assay with SK-MEL-5; 14.8 µM (inactive) in the assay with HCT-116; 5.02 µM (inactive) in the assay on SNB-75. In the assay with SK-OV-3, the GI50 was 39.6 µM (inactive).
On to `OC[P+](CO)(CO)C12CC3CC(CC(C3)C1)C2`, for which the GI50 was > 48.3 µM (inactive) with OVCAR-4; > 100 µM (inactive) in the assay on UACC-62; 21.9 µM (inactive) in the assay with RPMI-8226; > 70.8 µM (inactive) in the assay on NCI-H522; > 100 µM (inactive) in the assay with MCF7; 24.5 µM (inactive) with K562. Besides, the GI50 in the assay with RXF 393 is > 63.2 µM (inactive); with KM12, > 100 µM (inactive); in the assay with LOX IMVI, 4.67 µM (inactive); in the assay on IGROV-1, 4.85 µM (inactive); in the assay on HOP-62, > 100 µM (inactive); in the assay with SF-295 it was > 30.1 µM (inactive). In addition, the GI50 was above 89.5 µM in the assay on HCT-15; 16.7 µM (inactive) with SR; > 100 µM (inactive) with CAKI-1; > 100 µM (inactive) in the assay on SK-MEL-5; > 87.3 µM (inactive) in the assay with HCT-116; > 64.4 µM (inactive) with SNB-75. For the same compound, in the assay with SK-OV-3, the GI50 is > 100 µM (inactive).
Turning to `Cc1c(S(=O)(=O)c2ccccc2)c(N)n(CCN(C)C)c1C`, the GI50 in the assay on OVCAR-4, in the assay on UACC-62, in the assay with RPMI-8226, in the assay with NCI-H522, in the assay on MCF7 and in the assay with 786-0 was > 100 µM (inactive) each time. Moreover, the GI50 in the assay with K562 is > 100 µM (inactive); with RXF 393, > 100 µM (inactive); with KM12, > 100 µM (inactive); with IGROV-1 it was > 100 µM (inactive); with SF-295, > 100 µM (inactive); in the assay on HCT-15, above 100 µM. Moreover, the GI50 in the assay with SR, with CAKI-1, in the assay with SK-MEL-5, with HCT-116, with SNB-75 and in the assay on SK-OV-3 was > 100 µM (inactive) in each case.
